Measurements as given in patent publication US20080221253A1, “Lipophilic Properties of 2-Acrylamido-2-Methylpropanesulfonic Acid” (THE LUBRIZOL CORPORATION, priority 2004, published 2008).

Columns and labels:
[1] = Solubility of monomers, mixing 10% of the monomer with a variety of solvents; format: physicochemical; details: 10% by weight in solvent
[2] = octanol/water partition, P=Coctanol/Cwater; cited from earlier work

| SMILES | Solubility in Butyl Acetate [1] | Solubility in Ethanol [1] | Solubility in Ethyl Acetate [1] | Solubility in Isopropanol [1] | Solubility in Styrene [1] | Solubility in Toluene [1] | Solubility in Water [1] | log P [2] |
| --- | --- | --- | --- | --- | --- | --- | --- | --- |
| C=CC(=O)NC(C)(C)CS(=O)(=O)O [Example 7, 2-acrylamido-2-methylpropanesulfonic acid] | insoluble | insoluble | insoluble | not fully soluble | insoluble | insoluble | clear | – |
| C=CC(=O)NC(C)(C)CS(=O)(=O)O.CCCCCCCCCCCCN(C)C [Example 8, 2-acrylamido-2-methylpropanesulfonic acid/N,N-dimethyl-n-dodecylamine salt] | clear | clear | clear | clear | clear | clear | clear | – |
| C=CC(=O)NC(C)(C)CS(=O)(=O)O.CCCCC(CC)CN [Example 9, 2-acrylamido-2-methylpropanesulfonic acid/2-ethylhexylamine salt] | trace oil | clear | clear | clear | – | – | clear | – |
| C=CC(=O)O [acrylic acid] | – | – | – | – | – | – | – | about 0.4 |
| CCc1ccccc1 [ethylbenzene] | – | – | – | – | – | – | – | about 3.1 |
